{"source": "patent US20220378948A1", "about": "“METAL-BINDING PEPTIDE, AND USE THEREOF” (The Jikei University, priority 2019, published 2022)", "test": "Adsorption on stent in plasma, fluorescence microscopy", "type": "binding", "settings": "stent immersed in human plasma (37° C., 30 minutes), then 0.5 mM solution", "method": "Next, in order to analyze the binding ability of the peptide of the present invention and the 4-branched peptide complex to a stent existing in plasma, whether or not the peptide of the present invention also binds to a stent that has been allowed to come into contact with plasma was examined.\nThat is, a stent was immersed in human plasma (37° C., 30 minutes), and was then removed from the plasma. The stent was then immersed in each peptide solution (0.5 mM) and a 4-branched peptide complex solution (0.5 mM) (37° C., 30 minutes). Thereafter, the stent was sufficiently rinsed with PBS, and was then observed under an upright fluorescence microscope.", "data": [{"substance": "SEQ ID NO: 9: control peptide that does not bind to a Co—Cr stent; sequence not printed in the text (MKAHHSQLYPRH)", "values": [{"measurement": "binding to the surface of a stent in human plasma (fluorescence)", "value": "does not bind to a Co—Cr stent"}]}]}
